In the Deep4Chem optical property database one finds photoluminescence quantum yield data, which are given here for 35 compounds.

A short description of this series: photoluminescence quantum yield (fraction); solvent given as SMILES.
[1] abbreviates: in c1cc(-c2cccc(-n3c4ccccc4c4ccccc43)c2)cc(-n2c3ccccc3c3ccccc32)c1.

`COC(=O)c1ccc(C#Cc2ccc(N(C)C)cc2)cc1` yielded a photoluminescence quantum yield (in C1CCCCC1) of 0.351; a photoluminescence quantum yield (in C1CCOC1) of 0.15; a photoluminescence quantum yield (in C1COCCO1) of 0.303; a photoluminescence quantum yield (in CC1CCCO1) of 0.248; a photoluminescence quantum yield (in CC#N) of 0.134; a photoluminescence quantum yield (in CC(C)=O) of 0.428. The compound further had a photoluminescence quantum yield (in CC(C)CC(C)(C)C) of 0.31; a photoluminescence quantum yield (in CC(C)O) of 0.013; a photoluminescence quantum yield (in CCCCCCCCCCCCCCCC) of 0.314; a photoluminescence quantum yield (in CCCCCCCCCCCCCCCCCl) of 0.339; a photoluminescence quantum yield (in CCOC(C)=O) of 0.14; a photoluminescence quantum yield (in CCOCC) of 0.216. For the same compound, the photoluminescence quantum yield is 0.065 (in CN(C)C=O), 0.001 (in CO), 0.053 (in CS(C)=O) and 0.324 (in Cc1ccccc1).

`CCCCN1/C(=C\c2c(-c3ccc(N(C)C)cc3)c(=O)c2=O)C=Cc2ccccc21`: the photoluminescence quantum yield (in C1CCCCC1) came out at 0.0242, the photoluminescence quantum yield (in Cc1ccccc1) turned out to be 0.0163 and the photoluminescence quantum yield (in ClCCl) is 0.001.

Consider `CCC1=C(C)C2=Cc3c4ccccc4c4n3[B-](c3cc[n+](C)cc3)(Oc3ccccc3-4)[N+]2=C1C` (centres undefined), for which the photoluminescence quantum yield is, setting by setting: (in CO) 0.58; (in CS(C)=O) 0.63.

On to `COC(=O)c1ccc(/C=C2\C=C(c3ccc(OC)c(OC)c3)NC2=O)cc1`, for which, where the note is “in C1COCCO1”, the photoluminescence quantum yield came out at 0.363.

Regarding `C[Si](C)(C)[Si](C)(C)c1ccc2cc3ccccc3cc2c1`, the photoluminescence quantum yield came to 0.22 (in C1CCCCC1) and 0.08 (in CC#N).

Where the note is “in ClCCl”, `N#CC1N=c2cc3c4c(cccc4c2=NC1C#N)C(c1ccccc1)=C(c1ccccc1)O3` (centres undefined) had a photoluminescence quantum yield of 0.17.

Consider `Nc1ccccc1C(=O)O`, for which the photoluminescence quantum yield (in C1CCCCC1) is 0.29; the photoluminescence quantum yield (in CC#N) came out at 0.56; the photoluminescence quantum yield (in CC(C)=O) came out at 0.31; the photoluminescence quantum yield (in CCO) is 0.59; the photoluminescence quantum yield (in CS(C)=O) worked out at 0.64; the photoluminescence quantum yield (in O) came out at 0.6. Further, the photoluminescence quantum yield was found to be 0.27 (in OCC(F)(F)F) and 0.39 (in c1ccccc1).

With `CC(C)c1cc(C(C)C)c(B2c3cc(-n4c5ccc(C(C)(C)C)cc5c5cc(C(C)(C)C)ccc54)ccc3N(c3ccccc3)c3ccc(-n4c5ccc(C(C)(C)C)cc5c5cc(C(C)(C)C)ccc54)cc32)c(C(C)C)c1`, the photoluminescence quantum yield under setting [1] turned out to be 0.98.

The compound `O=C1[C@@H]2[C@H](C(=O)N1c1cccc3cc4ccccc4cc13)[C@H]1C[C@@H]2c2c1c(-c1ccccc1)c1ccccc1c2-c1ccccc1` displayed a photoluminescence quantum yield (in ClC(Cl)Cl) of 0.28.

The compound `O=c1c2ccccc2oc2cc(N3c4ccccc4C4(c5ccccc5Oc5ccccc54)c4ccccc43)ccc12` showed a photoluminescence quantum yield (in Cc1ccccc1) of 0.77.

`CC1(C)C(/C=C/C2=C(Cl)C(=C/C=C3/N(Cc4ccc(F)cc4)c4ccccc4C3(C)C)/CCC2)=[N+](Cc2ccc(F)cc2)c2ccccc21` displayed a photoluminescence quantum yield (in CCO) of 0.148.

The compound `CCCCCCOc1cc(/C=C/c2cc(OCCCCCC)c(/C=C/c3cc(OCCCCCC)c(C=C4C(=O)c5ccccc5C4=O)cc3OCCCCCC)cc2OCCCCCC)c(OCCCCCC)cc1C=C1C(=O)c2ccccc2C1=O` returned a photoluminescence quantum yield (in ClCCl) of 0.0468.

`c1ccc(-c2nc(-c3ccccc3)nc(-c3ccc(-n4c5ccccc5c5c4c4ccccc4n5-c4ccccc4)cc3)n2)cc1` displayed a photoluminescence quantum yield (in Cc1ccccc1) of 0.445.

As for `O=C1c2ccc(-c3ccc(N(c4ccccc4)c4ccccc4)cc3)cc2S(=O)(=O)c2cccc(-c3ccc(N(c4ccccc4)c4ccccc4)cc3)c21`, the photoluminescence quantum yield (in c1ccc2c(c1)c1ccccc1n2-c1ccc(-c2ccc(-n3c4ccccc4c4ccccc43)cc2)cc1) was 0.04.

For the compound `O=C([O-])c1ccc(C2=c3cc4c5c(c3Oc3c2cc2c6c3CCCN6CCC2)CCC[N+]=5CCC4)c(C(=O)[O-])c1`, the photoluminescence quantum yield is, setting by setting: (in CCO) 0.79; (in O) 0.6.

As to `CC(C)(C)c1ccc2c(c1)c1cc(C(C)(C)C)ccc1n2-c1ccc(-n2c3ccc(C(C)(C)C)cc3c3cc(C(C)(C)C)ccc32)c(-c2nccnc2C#N)c1`, the photoluminescence quantum yield worked out at 0.05 (in Cc1ccccc1) and 0.44 (in c1cc(-n2c3ccccc3c3ccccc32)cc(-n2c3ccccc3c3ccccc32)c1).

Turning to `COc1ccc(C#CC2=C3CCc4ccccc4C3=[O+][B-](F)(F)O2)cc1`, under “in ClCCl”, the photoluminescence quantum yield came to 0.145.

For the compound `C[n+]1ccc(/C=C/c2cc[n+](C)cc2)cc1`, the photoluminescence quantum yield (in CC#N) is 0.015.

In the case of `C[n+]1ccc(/C=C/c2ccc(N(c3ccccc3)c3ccc(/C=C/c4cc[n+](C)cc4)cc3)cc2)cc1`, the photoluminescence quantum yield worked out at 0.64 (in ClCCl), 0.08 (in O) and 0.11 (in OCC(O)CO).

`CCN(C)c1ccc(C2=C3C(C)=CC(/C=C/c4ccc(OCCCN=[N+]=[N-])cc4)=[N+]3[B-](F)(F)n3c(C)cc(C)c32)cc1` came in with a photoluminescence quantum yield (in CO) of 0.69.

On to `O=Cc1ccc(C#CC(C#Cc2ccc(C=O)s2)=Cc2ccc(C=C(C#Cc3ccc(C=O)s3)C#Cc3ccc(C=O)s3)cc2)s1`, for which, for the setting “in ClC(Cl)Cl”, the photoluminescence quantum yield was 0.08.

Consider `Cc1cccc2nc3c(=O)n(C)c(=O)nc-3n(C)c12`, for which the photoluminescence quantum yield (in CC#N) came to 0.07.

In turn, `Cc1ccc2c(c1)nc1c(=O)n(C)c(=O)nc-1n2C` came in with a photoluminescence quantum yield (in CC#N) of 0.43.

`Cc1ccc(C)n1-c1ccc(N(C)C)cc1`: the photoluminescence quantum yield is, setting by setting: (in CC#N) 0.27; (in CCCCCC) 0.11.

Consider `O=C(c1ccc(C(=O)c2ccc(N3c4ccccc4Oc4ccccc43)cc2)cc1)c1ccc(N2c3ccccc3Oc3ccccc32)cc1`, for which the photoluminescence quantum yield is, setting by setting: (in Cc1ccccc1) 0.1; under setting [1], 0.36.

`CCOC(=O)C1=C(N)n2c(=O)c3ccccc3c(=O)n2C1c1ccccc1` (centres undefined): the photoluminescence quantum yield (in CS(C)=O) came to 0.136.

The compound `CC1(C)c2ccccc2N(c2ccc3c(c2)S(=O)(=O)c2cc(N4c5ccccc5C(C)(C)c5ccccc54)ccc2C3(C)C)c2ccccc21` came in with a photoluminescence quantum yield (in O=P(c1ccccc1)(c1ccccc1)c1ccccc1Oc1ccccc1P(=O)(c1ccccc1)c1ccccc1) of 0.62.

As for `Nc1cccnc1`, the photoluminescence quantum yield was 0.02 (in C1CCCCC1); 0.05 (in CC#N); 0.14 (in CCO); 0.03 (in CCOCC); 0.16 (in O).

Take `CCOC(=O)c1sc(SC)c2c(=O)[nH]nnc12`: the photoluminescence quantum yield by setting is: (in C1CCOC1) 0.0075; (in CC#N) 0.018; (in CCO) 0.023; (in CN(C)C=O) 0.0037; (in CO) 0.029; (in CS(C)=O) 0.0054.

`N[C@@H](Cn1nnc2cc(-c3ccc(-c4ccsc4)cc3)ccc21)C(=O)O` displayed a photoluminescence quantum yield (in CO) of 0.03.

Take `CCCC1(CCC)c2cc(-c3ccco3)ccc2-c2ccc(-c3ccco3)cc21`: the photoluminescence quantum yield (in C1CCCCC1) came to 0.86.

On to `COC(=O)c1[nH]c(-c2ccc([N+](=O)[O-])cc2)c2nnc3ccc(OC)cc3c12`, for which, where the note is “in ClCCl”, the photoluminescence quantum yield is 0.262.

`CC1=CC(C)=[N+]2C1=C(c1c(-c3ccccn3)nc3ccccn13)c1c(C)cc(C)n1[B-]2(F)F` gave a photoluminescence quantum yield (in ClCCl) of 0.635.

On to `O=[N+]([O-])c1ccc(/C=C/c2cn(S(=O)(=O)c3ccccc3)c3ccccc23)cc1`, for which the photoluminescence quantum yield reads like this: (in CC#N) 0.066; (in CCCCCCC) 0.004; (in CO) 0.002; (in O) 0.003.

On to `CN(C)c1ccc(-c2ccc(-c3cc(-c4ccccc4)c(-c4ccccc4)c(-c4ccccc4)c3-c3ccccc3)cc2)cc1`, for which the photoluminescence quantum yield (in ClC(Cl)Cl) came out at 0.14.
